# Measurements from patent publication US9594042B2, “Electrochemical determination of factor XA inhibitors” (Roche Diagnostics Operations Inc., priority 2006, dated 2017).
# Molecular target: factor Xa (Homo sapiens, UniProt P00742)
# Experiment: premature factor Xa-induced degradation of the thrombin substrate during common dwelling in liquid reagent
# Assay type: biochemical
# Conditions: common dwelling time of 2 h with factor Xa
# Excerpt: The coagulation factor Xa is a serine protease which naturally recognizes the amino sequence -Ile-Glu-Gly-Arg- of prothrombin and by cleaving this sequence, activates the natural substrate prothrombin to form thrombin. In addition to this physiological substrate, factor Xa is also able to enzymatically cleave other peptides having this or other cleavage sequences. Thus, peptidic thrombin substrates and in particular the widely used Chromozym TH can also be cleaved by factor Xa. This low substrate specificity of factor Xa can result in problems in the methods according to the invention especially when such a thrombin substrate which can also be cleaved by factor Xa is used as a detection reagent and already comes into contact with factor Xa before adding the sample and can be converted thereby. As a result a portion of the thrombin substrate can already be converted such that this is no longer available for the thrombin-mediated detection reaction and thus the result of the measurement is affected. Such undesired side reactions can occur especially when factor Xa and the thrombin substrate are in contact over a long period such as would be for example the case if these two substances were to be introduced simultaneously into a liquid detection reagent. […]
# Chain of factor Xa (P00742 235-488 limits assumed): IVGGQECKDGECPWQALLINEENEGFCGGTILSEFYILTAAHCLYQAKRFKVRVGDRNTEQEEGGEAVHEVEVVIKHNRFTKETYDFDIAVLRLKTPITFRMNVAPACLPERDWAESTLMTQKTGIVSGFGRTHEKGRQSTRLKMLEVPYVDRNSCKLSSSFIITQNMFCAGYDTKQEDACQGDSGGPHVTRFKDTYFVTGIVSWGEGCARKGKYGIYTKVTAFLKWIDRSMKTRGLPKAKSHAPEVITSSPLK
# Chain of factor Xa (P00742 41-179 partner limits assumed): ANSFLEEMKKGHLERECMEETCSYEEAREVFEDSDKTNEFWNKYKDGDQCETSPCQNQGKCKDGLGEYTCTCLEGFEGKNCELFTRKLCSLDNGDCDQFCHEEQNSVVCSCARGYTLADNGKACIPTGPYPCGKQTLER
substance,measurement,value
tosyl-glycy-prolyl-arginine-4-nitroanilide acetate [reduced Chromozym TH],portion of the reduced Chromozym TH cleaved due alone to the action of factor Xa,about 25%
